The Kinase Knowledgebase extract (Sharma et al. 2016)
pIC50: −log10 of the molar value.

What follows are molecules tested against PIK3CA (human) (UniProt P42336) (assay: Inhibition of PIK3CA Kinase Activity).
Chain of PIK3CA (human) (P42336 whole entry, looked up): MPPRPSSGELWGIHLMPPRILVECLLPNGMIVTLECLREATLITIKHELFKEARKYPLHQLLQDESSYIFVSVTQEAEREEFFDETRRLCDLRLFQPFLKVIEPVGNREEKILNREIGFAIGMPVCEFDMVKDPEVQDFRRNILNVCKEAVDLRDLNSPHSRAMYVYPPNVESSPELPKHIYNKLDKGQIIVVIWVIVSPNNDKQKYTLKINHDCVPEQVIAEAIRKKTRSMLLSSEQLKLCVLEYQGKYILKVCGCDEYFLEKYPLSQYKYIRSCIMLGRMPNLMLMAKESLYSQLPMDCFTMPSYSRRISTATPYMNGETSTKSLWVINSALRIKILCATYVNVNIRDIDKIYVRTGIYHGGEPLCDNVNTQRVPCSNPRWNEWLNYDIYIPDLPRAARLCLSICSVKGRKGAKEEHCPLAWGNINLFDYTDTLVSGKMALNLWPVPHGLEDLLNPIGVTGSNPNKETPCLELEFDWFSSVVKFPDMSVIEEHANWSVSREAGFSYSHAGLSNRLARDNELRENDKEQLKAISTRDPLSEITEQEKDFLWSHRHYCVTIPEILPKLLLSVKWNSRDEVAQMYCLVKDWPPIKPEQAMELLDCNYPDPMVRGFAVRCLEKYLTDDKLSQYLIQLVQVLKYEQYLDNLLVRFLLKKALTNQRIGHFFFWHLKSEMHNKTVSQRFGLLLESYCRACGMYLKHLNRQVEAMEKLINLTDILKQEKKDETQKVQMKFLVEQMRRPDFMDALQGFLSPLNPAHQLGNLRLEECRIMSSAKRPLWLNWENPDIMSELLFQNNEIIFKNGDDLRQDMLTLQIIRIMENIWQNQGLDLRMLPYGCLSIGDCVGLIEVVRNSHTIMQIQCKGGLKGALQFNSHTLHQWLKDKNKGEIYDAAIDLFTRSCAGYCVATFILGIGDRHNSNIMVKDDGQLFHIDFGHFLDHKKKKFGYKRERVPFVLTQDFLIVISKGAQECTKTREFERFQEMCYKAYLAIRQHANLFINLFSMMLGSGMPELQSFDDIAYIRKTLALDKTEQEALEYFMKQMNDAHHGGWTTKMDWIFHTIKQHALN

SMILES | pIC50
Cc1nc(N)sc1-c1ccc2c(c1)CN(c1ncnc3c1CCC(C)(C)C3)CCO2 | 6.60 to 7.30
Cc1nc2ccc(-c3ccc4c(c3)CN(c3nc(CNC5CCC5)nc5c3CC(C)(C)CC5)CCO4)cc2[nH]1 | 7.30 to 8.00
Cc1nc2c(c(N3CCOc4ccc(-c5cnc(N)c(S(=O)(=O)N(C)C)c5)cc4C3)n1)CC(C)(C)CC2 | 6.60 to 7.30
COc1cncc(-c2ccc3c(c2)CN(c2ncnc4c2CC(C)(C)CC4)CCO3)c1 | 6.00 to 6.60
CNS(=O)(=O)c1cc(-c2ccc3c(c2)CN(c2ncnc4c2CC(C)(C)CC4)CCO3)cnc1N | ≥ 8.00
CC1(C)CCc2ncnc(N3CCOc4ccc(-c5cnc(N)c(S(=O)(=O)N6CC(F)(F)C6)c5)cc4C3)c2C1 | 6.60 to 7.30
Cc1nc2cc(-c3ccc4c(c3)CN(c3nc(NCCN(C)C)nc(C)c3Cc3ccc(F)cc3)CCO4)ccc2[nH]1 | 7.30 to 8.00
CC(N)CNS(=O)(=O)c1cc(-c2ccc3c(c2)CN(c2ncnc4c2CC(C)(C)CC4)CCO3)cnc1N (stereo unspecified) | 6.60 to 7.30
Cc1nc2ncc(-c3ccc4c(c3)CN(c3ncnc(NC(C)C)c3C)CCO4)cc2[nH]1 | 7.30 to 8.00
Cc1nc2cc(-c3ccc4c(c3)CN(c3nc(CN(C)C)nc(C)c3Cl)CCO4)ccc2[nH]1 | 6.60 to 7.30
CCNc1nc2ccc(-c3ccc4c(c3)CN(c3ccnc5c(F)cccc35)CCO4)cc2[nH]1 | ≥ 8.00
Cc1nc2ccc(-c3ccc4c(c3)CN(c3ncnc(C)c3Cc3ccc(F)c(F)c3)CCO4)cc2[nH]1 | 7.30 to 8.00
CC1(C)CCc2ncnc(N3CCOc4ccc(-c5cnc(N)c(S(=O)(=O)NCC6CCNCC6)c5)cc4C3)c2C1 | 7.30 to 8.00
COc1ccc2c(N3CCOc4ccc(-c5ccc6nc[nH]c6c5)cc4C3)nc(C)nc2c1 | ≥ 8.00
COc1ccc2c(N3CCOc4ccc(-c5cnc(N)c(S(=O)(=O)C[C@@H](C)CO)c5)cc4C3)ncnc2c1 | ≥ 8.00
Cc1nc(N2CCOc3ccc(-c4ccc(N)nc4)cc3C2)c2ccccc2n1 | 6.00 to 6.60
CCNc1nc2ccc(-c3ccc4c(c3)CN(c3ccnc5ccc(F)cc35)CCO4)cc2[nH]1 | 7.30 to 8.00
COc1ccc2c(N3CCOc4ccc(-c5cnc6sc(N)nc6c5)cc4C3)nc(CN(C)C)nc2c1 | ≥ 8.00
Cc1nc2ccc(-c3ccc4c(c3)CN(c3ncnc5ccc(I)cc35)CCO4)cc2[nH]1 | 6.60 to 7.30
Cc1nc2ncc(-c3ccc4c(c3)CN(c3nc(CN5CC[C@@H](F)C5)nc5c3CC(C)(C)CC5)CCO4)cc2[nH]1 | ≥ 8.00
Cc1nc2ccc(-c3ccc4c(c3)CN(c3nc(CN5CC[C@@H](F)C5)nc5c3CC(C)(C)CC5)CCO4)cc2[nH]1 | 7.30 to 8.00
CN(C)Cc1nc2c(c(N3CCOc4ccc(-c5cnc(Cl)c(NS(C)(=O)=O)c5)cc4C3)n1)CC(C)(C)CC2 | ≥ 8.00
CC1(C)CCc2ncnc(N3CCOc4ccc(-c5cnc(Cl)c(OC(F)F)c5)cc4C3)c2C1 | 6.00 to 6.60
Cc1nc2ncc(-c3ccc4c(c3)CN(c3ncnc5c3CC(C)(C)C=C5)CCO4)cc2[nH]1 | 7.30 to 8.00
CCNc1nc2ccc(-c3ccc4c(c3)CN(c3ccnc5cc(F)ccc35)CCO4)cc2[nH]1 | ≥ 8.00
COc1c(OCC2CC2)ccc2c(N3CCOc4ccc(-c5ccc6nc(C)[nH]c6c5)cc4C3)ncnc12 | 7.30 to 8.00
CC1(C)CCc2ncnc(N3CCOc4ccc(-c5cnc(N)c(NS(C)(=O)=O)c5)cc4C3)c2C1 | 6.60 to 7.30

SMILES | pIC50
Cc1nc2ncc(-c3ccc4c(c3)CN(c3ncnc5c3CC[C@H](C)C5)CCO4)cc2[nH]1 | 7.30 to 8.00
Cc1nc2ccc(-c3ccc4c(c3)CN(c3ncnc5ccccc35)CCO4)cc2[nH]1 | 7.30 to 8.00
Cc1ncnc(N2CCOc3ccc(-c4ccc5nc(N)nn5c4)cc3C2)c1Cc1ccc(F)cc1 | 6.60 to 7.30
CC(=O)OCc1nc(C)c(Cc2ccc(F)cc2)c(N2CCOc3ccc(-c4ccc5[nH]c(C)nc5c4)cc3C2)n1 | 7.30 to 8.00
CC[C@H]1CCc2c(nc(C)nc2N2CCOc3ccc(-c4cnc5nc(NC(=O)OC)[nH]c5c4)cc3C2)C1 | ≥ 8.00
Cc1ncnc(N2CCOc3ccc(-c4cnc5nc(N)[nH]c5c4)cc3C2)c1Cc1ccc(F)cc1 | ≥ 8.00
COc1ccc2c(N3CCOc4ccc(-c5ccc6c(c5)CC(=O)N6)cc4C3)nc(C)nc2c1 | 6.00 to 6.60
CC1(C)CCc2ncnc(N3CCOc4ccc(-c5cnc(N)c(S(=O)(=O)NC[C@@H]6CCCN6)c5)cc4C3)c2C1 | 6.60 to 7.30
CC1(C)CCc2ncnc(N3CCOc4ccc(-c5cnc6sc(N)nc6c5)cc4C3)c2C1 | 7.30 to 8.00
Cc1nc2ccc(-c3ccc4c(c3)CN(c3ncnc5cc(F)ccc35)CCO4)cc2[nH]1 | 7.30 to 8.00
CC1(C)CCc2ncnc(N3CCOc4ccc(-c5cnc(N)c(S(=O)(=O)NCCCN)c5)cc4C3)c2C1 | ≥ 8.00
Nc1ccc(-c2ccc3c(c2)CN(c2ccnc4ccccc24)CCO3)cn1 | 6.60 to 7.30
CN(C)CCNS(=O)(=O)c1cc(-c2ccc3c(c2)CN(c2ncnc4c2CC(C)(C)CC4)CCO3)cnc1N | 6.60 to 7.30
CC1(C)CCc2ncnc(N3CCOc4ccc(-c5cnc(C#N)c(NS(C)(=O)=O)c5)cc4C3)c2C1 | 6.60 to 7.30
Cc1nc2ccc(-c3ccc4c(c3)CN(c3ncnc(C)c3Cc3ccc(Cl)cc3)CCO4)cc2[nH]1 | 7.30 to 8.00
CC1(C)CCc2ncnc(N3CCOc4ccc(-c5cnc(N)c(S(=O)(=O)NC[C@@H]6CCCNC6)c5)cc4C3)c2C1 | 6.60 to 7.30
CC(C)NS(=O)(=O)c1cc(-c2ccc3c(c2)CN(c2ncnc4c2CC(C)(C)CC4)CCO3)cnc1N | ≥ 8.00
Cc1nc2ncc(-c3ccc4c(c3)CN(c3ncnc(C)c3Br)CCO4)cc2[nH]1 | 6.60 to 7.30
Cc1nc2ccc(-c3ccc4c(c3)CN(c3ncncc3C)CCO4)cc2[nH]1 | 6.00 to 6.60
COc1ccc2c(N3CCOc4ccc(-c5cnc6sc(NC(C)=O)nc6c5)cc4C3)nc(CN(C)C)nc2c1 | 7.30 to 8.00
CCNCc1nc2c(c(N3CCOc4ccc(-c5cnc6nc(C)[nH]c6c5)cc4C3)n1)CC(C)(C)CC2 | ≥ 8.00
CC1(C)CCc2ncnc(N3CCOc4ccc(-c5cnc(N)c(S(=O)(=O)N6CC(O)(CO)C6)c5)cc4C3)c2C1 | 7.30 to 8.00
C=CCc1c(C)nc(CN(C)C)nc1N1CCOc2ccc(-c3ccc4nc(C)[nH]c4c3)cc2C1 | ≥ 8.00
Cc1nc2ncc(-c3ccc4c(c3)CN(c3ncnc5c3CCC(C(F)(F)F)C5)CCO4)cc2[nH]1 (stereo unspecified) | 6.60 to 7.30
Cc1nc2ncc(-c3ccc4c(c3)CN(c3nc(CNC5CCC5)nc5c3CC(C)(C)CC5)CCO4)cc2[nH]1 | 7.30 to 8.00
CNC(=O)c1ccc(-c2ccc3c(c2)CN(c2ccnc4ccccc24)CCO3)cc1 | 6.60 to 7.30
CCc1ncnc(N2CCOc3ccc(-c4cnc5nc(C)[nH]c5c4)cc3C2)c1C | 6.60 to 7.30

Next, values leading:

pIC50 | SMILES
≥ 8.00 | COc1ccc2c(N3CCOc4ccc(-c5ccc(-c6ncc[nH]6)cc5)cc4C3)nc(C)nc2c1
6.60 to 7.30 | CC1(C)CCc2ncnc(N3CCOc4ccc(-c5cnc(N)c(S(=O)(=O)NC[C@H]6CCCN6)c5)cc4C3)c2C1
7.30 to 8.00 | Cc1nc2ncc(-c3ccc4c(c3)CN(c3ncnc5c3CCC(C)(c3ccccc3)C5)CCO4)cc2[nH]1 (stereo unspecified)
6.00 to 6.60 | Cc1nc2ccc(-c3ccc4c(c3)CN(c3ncnc5ccc(S(C)(=O)=O)cc35)CCO4)cc2[nH]1
7.30 to 8.00 | CCS(=O)(=O)c1cc(-c2ccc3c(c2)CN(c2ncnc4c2CC(C)(C)CC4)CCO3)cnc1N
6.60 to 7.30 | COc1cc2nccc(N3CCOc4ccc(-c5ccc(-c6ncc[nH]6)cc5)cc4C3)c2cc1OC
6.60 to 7.30 | CC[C@H]1CCc2c(ncnc2N2CCOc3ccc(-c4cnc5nc([C@H](C)N)[nH]c5c4)cc3C2)C1
7.30 to 8.00 | COC(=O)Nc1nc2ccc(-c3ccc4c(c3)CN(c3ncnc5cc(OC)c(OC)cc35)CCO4)cc2[nH]1
≥ 8.00 | COc1ccc2c(N3CCOc4ccc(-c5cnc6nc(C)[nH]c6c5)cc4C3)ncnc2c1
6.00 to 6.60 | COc1ccc(-c2ccc3c(c2)CN(c2nc(CN(C)C)nc4c2CC(C)(C)CC4)CCO3)cc1C(C)=O
6.60 to 7.30 | Cc1nc2ccc(-c3ccc4c(c3)CN(c3ncnc5cc(C(F)(F)F)ccc35)CCO4)cc2[nH]1
7.30 to 8.00 | Cc1nc2ncc(-c3ccc4c(c3)CN(c3ncnc5c3CC(C)(C)CC5)CCO4)cc2[nH]1
7.30 to 8.00 | CC1(C)CCc2ncnc(N3CCOc4ccc(-c5cnc(N)c(S(=O)(=O)NC6CNC6)c5)cc4C3)c2C1
7.30 to 8.00 | c1ccc2c(N3CCOc4ccc(-c5ccc6nc(C7CC7)[nH]c6c5)cc4C3)ccnc2c1
7.30 to 8.00 | Cc1nc2ccc(-c3ccc4c(c3)CN(c3ncnc5cc(I)ccc35)CCO4)cc2[nH]1
7.30 to 8.00 | Cc1nc2c(c(N3CCOc4ccc(-c5cnc6nc(C)[nH]c6c5)cc4C3)n1)CC(C)CC2 (stereo unspecified)

pIC50 | SMILES
6.00 to 6.60 | Cc1nc(N)sc1-c1ccc2c(c1)CN(c1ncnc(C)c1Cc1ccc(F)cc1)CCO2
≥ 8.00 | COc1ccc2c(N3CCOc4ccc(-c5ccc6nc(N)[nH]c6c5)cc4C3)nc(C)nc2c1
6.00 to 6.60 | COC(=O)Nc1nc2ccc(-c3ccc4c(c3)CN(c3ccncn3)CCO4)cc2[nH]1
6.00 to 6.60 | Cc1nc2ccc(-c3ccc4c(c3)CN(c3ncnc5c3CCN(Cc3ccccc3)C5)CCO4)cc2[nH]1
6.60 to 7.30 | CC1(C)CCc2ncnc(N3CCOc4ccc(-c5cnc(N)c(S(=O)(=O)N6CC7CNCC7C6)c5)cc4C3)c2C1 (stereo unspecified)
6.60 to 7.30 | CC1=CC(C)(C)Cc2c1ncnc2N1CCOc2ccc(-c3cnc(N)c(S(=O)(=O)N4CC[C@@H](N)C4)c3)cc2C1
6.60 to 7.30 | CCOc1ncc(-c2ccc3c(c2)CN(c2ncnc4c2CC(C)(C)CC4)CCO3)cc1NS(C)(=O)=O
7.30 to 8.00 | Cc1nc2ccc(-c3ccc4c(c3)CN(c3ncnc(C)c3Cc3cccc(F)c3)CCO4)cc2[nH]1
7.30 to 8.00 | Cc1nc2ccc(-c3ccc4c(c3)CN(c3ncnc5ccc(OCC#N)cc35)CCO4)cc2[nH]1
7.30 to 8.00 | CC1(C)CCc2ncnc(N3CCOc4ccc(-c5cnc(N)c(S(=O)(=O)N6CC[C@@H](O)C6)c5)cc4C3)c2C1
6.00 to 6.60 | COc1ccc2c(N3CCOc4ccc(-c5ccc(-c6nc7ccccc7[nH]6)cc5)cc4C3)nc(C)nc2c1
6.60 to 7.30 | CC1=CC(C)(C)Cc2c1ncnc2N1CCOc2ccc(-c3cnc(N)c(S(=O)(=O)N[C@@H]4CCN(C)C4)c3)cc2C1
6.60 to 7.30 | COc1c(OCC(C)C)ccc2c(N3CCOc4ccc(-c5ccc6nc(C)[nH]c6c5)cc4C3)ncnc12
≥ 8.00 | CCNc1nc2ccc(-c3ccc4c(c3)CN(c3ncnc5cc(F)ccc35)CCO4)cc2[nH]1
7.30 to 8.00 | CC1(C)CCc2ncnc(N3CCOc4ccc(-c5cnc(N)c(S(=O)(=O)N6CC[C@@H](N)C6)c5)cc4C3)c2C1
≥ 8.00 | CC1(C)CCc2ncnc(N3CCOc4ccc(-c5cnc(N)c(S(=O)(=O)N6CC(O)C6)c5)cc4C3)c2C1
